Data reported in US6548715B1, “Structural analogues of vitamin D” (Laboratoire Theramex S.A., priority 1993, dated 2003).

Columns and labels:
[1] = target: T1, human DBP (vitamin D binding protein) (Homo sapiens, UniProt P02774); assay: Relative affinity for purified human vitamin D-binding protein (hDBP); conditions: % of the activity of 1α,25-(OH)2D3 at 50% of its activity (B50)
T1 sequence (P02774 17-474): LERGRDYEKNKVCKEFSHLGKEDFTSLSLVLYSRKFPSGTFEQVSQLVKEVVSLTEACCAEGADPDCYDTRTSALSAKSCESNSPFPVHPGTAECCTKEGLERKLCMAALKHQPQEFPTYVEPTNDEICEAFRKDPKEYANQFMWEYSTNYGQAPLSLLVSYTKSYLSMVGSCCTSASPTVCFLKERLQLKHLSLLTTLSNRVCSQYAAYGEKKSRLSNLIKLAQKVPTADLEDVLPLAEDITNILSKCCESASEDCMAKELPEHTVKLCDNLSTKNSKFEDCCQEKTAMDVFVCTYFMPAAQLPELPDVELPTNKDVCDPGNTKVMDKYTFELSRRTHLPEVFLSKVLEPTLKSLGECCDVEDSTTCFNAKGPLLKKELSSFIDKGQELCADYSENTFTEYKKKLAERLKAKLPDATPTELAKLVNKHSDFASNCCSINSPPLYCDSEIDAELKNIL

HL-60 cells = assay: HL-60 cell differentiation (NBT reduction); format: cell-based; conditions: % of the activity of 1α,25-(OH)2D3 at 50% of its activity (B50); human leukemia cells
Protocol: (§1) HL-60 cells were seeded at 1.2×10^5 cells/ml and 1α,25-(OH)2D3 or its anologs were added in ethanol (final concentration <0.2%) in RPMI 1640 medium supplemented with 10% heat-inactivated fetal calf serum (FCS) for 4 d at 37° C. Cells were then assayed for maturation by NBT reduction assay as described (22) using a hemacytometer, or for proliferation by cell counting and [^3H] thymidine incorporation. MG 63 cells, seeded at 5×10^3 cells/ml in 96 well flat bottomed culture plates (Falcon, Becton Dickinson, N.J.) in a volume of 0.2 ml of DMEM and 2% FCS, were incubated with 1α,25-(OH)2D3 or its analogues for 72 h. Osteocalcin was then measured in the culture medium using a homologous human osteocalcin RIA (39). Breast carcinoma cells (MCF-7 or GR) were grown in DMEM/nut.mix F-12 (HAM) medium supplemented with 10% FCS. Cells (5000/Well) were incubated during 24 h in 96 well tissue culture plates (Falcon 3072) followed by a 72 h incubation with/without 1α,25-(OH)2D3 or analogues. The cells were then incubated with [^3H]thymidine (1 μCi/well) for 4 h and harvested thereafter in NaOH (0.1 M) and the radioactivity counted. The protein content of the cells was measured by the Pierce BCA protein assay (Rockford, Ill.).

MG-63 cells = assay: MG-63 osteosarcoma cells, osteocalcin secretion; format: cell-based; conditions: % of the activity of 1α,25-(OH)2D3 at 50% of its activity (B50); human osteosarcoma cells
Protocol: as §1

MCF-7 cells = assay: MCF-7 breast cancer cell proliferation ([3H]thymidine incorporation); format: cell-based; conditions: % of the activity of 1α,25-(OH)2D3 at 50% of its activity (B50); human breast cancer cells
Protocol: as §1

[2] = tested on: human normal keratinocytes; assay: Human keratinocyte proliferation ([3H]thymidine incorporation); format: cell-based; conditions: % of the activity of 1α,25-(OH)2D3 at 50% of its activity (B50)
Protocol: to evaluate the effects on cell proliferation of non-malignant cells and especially to evaluate their potential for use for dermatological disorders, the new compounds were tested in cultures of human normal keratinocytes.
Human skin keratinocytes were isolated and cultured using a modification of the method of Kitano and Okada (38).
Briefly, the skin from biopsies of patients with breast tumors, was cutted into pieces measuring 3-5 mm and soaked overnight at 4° C. in a solution of dispase (20 Boehringer units/ml). The epidermis was peeled from the dermis, washed with calcium- and magnesium-free phosphate buffered saline and incubated and shaked in a 0.25% trypsin solution for 10 min at room temperature. The reaction was then stopped by addition of PBS containing 10% FCS. The cells were collected after centrifugation at 4° C. for 10 min at 800 rpm. After an additional washing with PBS, the pellet was suspended in culture medium into 25 cm^2 primaria flasks from Becton Dickinson. The keratinocytes were cultivated at 37° C. in an atmosphere of 5% CO2 in air. A few hours later, the medium was replaced by new one. The medium [Keratinocyte Medium from Gibco containing Epidermal Growth Factor (5 ng/ml), Bovine Pituitary Extract (35-50 μg/ml) and antibiotics] was renewed every other day until confluency.
Keratinocytes were cultured in 96-well plate and, after 24 hours, were treated with various concentrations of vitamin D analogues, followed by pulse labelling with 1 μCi of [^3H]thymidine for 3 hours. Cultures were washed 3 times with PBS and twice with 10% (v/v) ice cold trichloroacetic acid. Cells were solubilized with 1 M NaOH and radioactivity was counted in a scintillation counter.

[3] = tested on: vitamin D-deficient chicks; assay: Calcemic effect in vitamin D-deficient chicks (serum calcium); format: in vivo, chick; conditions: % of the activity of 1α,25-(OH)2D3 at 50% of its activity (B50); vitamin D-deficient chicks injected 10 consecutive days
Protocol: The antirachitic activity of the analogues was tested in 3 weeks old vitamin D-deficient chicks injected for 10 consecutive days with 1α,25-(OH)2D3 or its analogues (22,23). Serum calcium (by atomic absorptiometry) and osteocalcin (by specific RIA), duodenal calbindin D-28K (by RIA) and bone calcium content were measured. The hypercalcemic effect of the most interesting anologues was also tested in vitamin D-replete normal NMRI mice by daily sc injection of 1α,25-(OH)2D3, its analogues or the solvent for 7 consecutive days, using serum, bone and urinary calcium excretion and serum osteocalcin (by specific mouse RIA) as parameters (40).

vitamin D receptor = target: T2, vitamin D receptor (Sus scrofa, UniProt A3RGC1); conditions: % of the activity of 1α,25-(OH)2D3 at 50% of its activity (B50); 1α,25-(OH)2D3 assigned 100%
T2 sequence (A3RGC1 1-427): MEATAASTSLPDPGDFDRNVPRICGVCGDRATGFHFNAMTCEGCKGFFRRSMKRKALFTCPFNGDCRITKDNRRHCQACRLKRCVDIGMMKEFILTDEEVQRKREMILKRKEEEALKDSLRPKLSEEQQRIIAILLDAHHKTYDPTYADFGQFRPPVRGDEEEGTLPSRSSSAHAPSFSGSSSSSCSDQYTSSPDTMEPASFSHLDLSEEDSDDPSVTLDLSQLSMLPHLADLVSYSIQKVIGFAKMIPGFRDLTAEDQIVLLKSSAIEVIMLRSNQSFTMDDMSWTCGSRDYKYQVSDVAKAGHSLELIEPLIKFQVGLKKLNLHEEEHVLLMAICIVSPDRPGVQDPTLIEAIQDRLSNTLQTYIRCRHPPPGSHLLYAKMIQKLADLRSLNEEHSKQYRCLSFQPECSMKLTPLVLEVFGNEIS

[4] = tested on: spontaneously diabetic NOD mice; assay: Prevention of autoimmune disease recurrence after syngeneic islet transplantation in diabetic NOD mice; format: in vivo; conditions: Nr 46 10 μg/kg/2d
Excerpt: To evaluate the immune potential of the analogues the well known model of prevention of autoimmune disease recurrence in the spontaneously diabetic NOD mice was used. When syngeneic NOD islets are transplanted under the kidney capsule of spontaneously diabetic NOD mice, diabetes is only cured for some days, since in the absence of immunomodulatory treatment, the newly transplanted islets are destroyed within 14 days.

| SMILES | Affinity for human DBP [1] [%] | Ca serum chick [3] [%] | Affinity for pig receptor (vitamin D receptor) [%] | Cell differentation/cell proliferation HL-60 (HL-60 cells) [%] | Cell differentation/cell proliferation MG-63 (MG-63 cells) [%] | Cell differentation/cell proliferation MCF-7 (MCF-7 cells) [%] | Cell differentation/cell proliferation keratinocytes [2] [%] | Mean survival of islets and range [4] |
| --- | --- | --- | --- | --- | --- | --- | --- | --- |
| C=C1C(=CC=CCC2(C)CCC(CCCC(O)(CC)CC)C2(C)C)CC(O)CC1O (stereo not shown) [Compound 12] | 5 | <0.1 | 45 | 250 | 135 | 80 | 100 | – |
| C=C1C(=CC=CCC2(C)CCC(CCCC(O)(CC)CC)C2(C)C)CC(O)CC1O (stereo not shown) [Compound 16] | 0 | 0.2 | 15 | 12 | 10 | – | 30 | – |
| CC(CC#CC(C)(C)O)C1CCC2C(=CC=C3CC(O)CC(O)C3)CCCC21C (stereo not shown) [Compound 44] | 2 | 0.1 | 26 | 320 | 150 | 1000 | 700 | – |
| CC(CC#CC(C)(C)O)C1CCC2C(=CC=C3CC(O)CC(O)C3)CCCC21C (stereo not shown) [Compound 46] | <0.5 | 2 | 30 | 1650 | 500 | 1950 | 1000 | 19 (6-51) d |
| CC1=C(/C=C\C2=CCC[C@](C)([C@H](C)[C@H](C)CC[C@@H](O)C(C)C)C2)C[C@@H](O)C[C@@H]1O [Compound 58] | 1 | <1 | 3 | 650 | 115 | 700 | 1000 | – |
| C=C1C(=CC=CCC2(C)CCC(OCCC(O)(CC)CC)C2(C)C)CC(O)CC1O (stereo not shown) [Compound 18] | 0 | <0.1 | 4 | 10 | – | 40 | 35 | – |

Further lines, with some results ahead:

| Affinity for human DBP [1] [%] | Ca serum chick [3] [%] | Affinity for pig receptor (vitamin D receptor) [%] | SMILES | Cell differentation/cell proliferation HL-60 (HL-60 cells) [%] | Cell differentation/cell proliferation MG-63 (MG-63 cells) [%] | Cell differentation/cell proliferation MCF-7 (MCF-7 cells) [%] | Cell differentation/cell proliferation keratinocytes [2] [%] | Mean survival of islets and range [4] |
| --- | --- | --- | --- | --- | --- | --- | --- | --- |
| 5 | <1 | 60 | C=C1/C(=C\C=C2/CCC[C@](C)([C@H](C)[C@H](C)CC[C@H](O)C(C)C)C2)C[C@@H](O)C[C@@H]1O [Compound 4] | 500 | 100 | 2000 | 2000 | – |
| 0 | 0.1 | 9 | CCC(O)(C=CC=CC(C)C1CCC2C(=CC=C3CC(O)CC(O)C3)CCCC21C)CC (stereo not shown) [Compound 50] | 40 | – | 100 | 60 | – |
| 7 | 0.1 | 25 | CC(CCCC(C)(C)O)C1CCC2C(=CC=C3CC(O)CC(O)C3)CCCC21C (stereo not shown) [Compound 43] | 40 | 100 | 20 | 100 | – |
| 10 | 9 | 80 | C=C1/C(=C\C=C2/CCC[C@](C)([C@H](C)[C@H](C)CC[C@@H](O)C(C)C)C2)C[C@@H](O)C[C@@H]1O [Compound 5] | 4000 | 1000 | 6000 | 5000 | – |
| 0.3 | 1 | 40 | CCC(O)(C#CCC(C)C1CCC2C(=CC=C3CC(O)CC(O)C3)CCCC21C)CC (stereo not shown) [Compound 48] | 2200 | 800 | 1500 | 350 | – |
| 19 | <0.1 | 8 | C=C1C(=CC=CCC2(C)CCC(CCCC(C)(C)O)C2(C)C)CC(O)CC1O (stereo not shown) [Compound 11] | 30 | 35 | 30 | 10 | – |
